Experimental data taken from paper PMC11945542 (Viruses, 2025).
Entries after “also recorded” stand apart in the source; their conditions may differ. Where two headings read alike, the source gives them in different places.

Assays:
SARS-CoV-2 [1] = assay: microbe, parasite or virus in culture; assay type: cell-based; conditions: for IC50: read-out: IC50 against SARS-CoV-2
[2] = tested on: herpes simplex virus (HSV) 1 MacIntyre; assay type: cell-based, herpes simplex virus 1
[3] = tested on: dengue virus (DNV) serotype 2 D2Y98P; assay: microbe, parasite or virus in culture; assay type: cell-based, dengue virus serotype 2; conditions: read-out: IC50 against dengue virus type 2
CDK8 = CDK8 (Homo sapiens, UniProt P49336); assay: Kinase inhibition profile: CDK8; assay type: biochemical; conditions: kinase inhibition profile (DSTT, Cerep); preliminary
CDK8, sequence (P49336 whole entry): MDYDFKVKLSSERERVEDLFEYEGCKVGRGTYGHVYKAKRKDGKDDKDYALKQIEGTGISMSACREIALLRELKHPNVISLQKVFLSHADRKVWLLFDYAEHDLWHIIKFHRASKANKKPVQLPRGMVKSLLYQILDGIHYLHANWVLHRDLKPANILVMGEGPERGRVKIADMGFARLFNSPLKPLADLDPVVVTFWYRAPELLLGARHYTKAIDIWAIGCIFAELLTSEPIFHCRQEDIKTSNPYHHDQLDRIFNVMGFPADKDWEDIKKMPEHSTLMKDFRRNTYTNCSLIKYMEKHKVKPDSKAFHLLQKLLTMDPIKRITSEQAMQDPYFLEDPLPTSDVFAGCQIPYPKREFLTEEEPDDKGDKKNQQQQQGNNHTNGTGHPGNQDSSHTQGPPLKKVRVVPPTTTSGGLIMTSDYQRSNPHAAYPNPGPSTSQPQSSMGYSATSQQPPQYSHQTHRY
CDK8, sequence (P24863 whole entry partner): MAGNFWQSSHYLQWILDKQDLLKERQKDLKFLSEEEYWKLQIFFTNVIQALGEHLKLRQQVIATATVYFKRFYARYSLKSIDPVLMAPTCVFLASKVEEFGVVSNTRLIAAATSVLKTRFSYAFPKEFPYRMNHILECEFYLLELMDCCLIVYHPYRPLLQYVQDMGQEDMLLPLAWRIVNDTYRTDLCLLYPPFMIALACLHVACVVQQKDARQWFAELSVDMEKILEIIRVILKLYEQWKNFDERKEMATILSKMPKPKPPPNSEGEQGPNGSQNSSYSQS

SARS-CoV-2 [4] = assay: microbe, parasite or virus in culture; assay type: cell-based; conditions: Calu-3 cells, 48 h, immunofluorescence of infected cells
TIE-2 [5] = molecular target: T1, TIE-2 (Homo sapiens, UniProt Q02763); assay: Kinase inhibition profile: TIE-2; assay type: biochemical; conditions: kinase inhibition profile (DSTT, Cerep); preliminary
T1 sequence (Q02763 23-1124): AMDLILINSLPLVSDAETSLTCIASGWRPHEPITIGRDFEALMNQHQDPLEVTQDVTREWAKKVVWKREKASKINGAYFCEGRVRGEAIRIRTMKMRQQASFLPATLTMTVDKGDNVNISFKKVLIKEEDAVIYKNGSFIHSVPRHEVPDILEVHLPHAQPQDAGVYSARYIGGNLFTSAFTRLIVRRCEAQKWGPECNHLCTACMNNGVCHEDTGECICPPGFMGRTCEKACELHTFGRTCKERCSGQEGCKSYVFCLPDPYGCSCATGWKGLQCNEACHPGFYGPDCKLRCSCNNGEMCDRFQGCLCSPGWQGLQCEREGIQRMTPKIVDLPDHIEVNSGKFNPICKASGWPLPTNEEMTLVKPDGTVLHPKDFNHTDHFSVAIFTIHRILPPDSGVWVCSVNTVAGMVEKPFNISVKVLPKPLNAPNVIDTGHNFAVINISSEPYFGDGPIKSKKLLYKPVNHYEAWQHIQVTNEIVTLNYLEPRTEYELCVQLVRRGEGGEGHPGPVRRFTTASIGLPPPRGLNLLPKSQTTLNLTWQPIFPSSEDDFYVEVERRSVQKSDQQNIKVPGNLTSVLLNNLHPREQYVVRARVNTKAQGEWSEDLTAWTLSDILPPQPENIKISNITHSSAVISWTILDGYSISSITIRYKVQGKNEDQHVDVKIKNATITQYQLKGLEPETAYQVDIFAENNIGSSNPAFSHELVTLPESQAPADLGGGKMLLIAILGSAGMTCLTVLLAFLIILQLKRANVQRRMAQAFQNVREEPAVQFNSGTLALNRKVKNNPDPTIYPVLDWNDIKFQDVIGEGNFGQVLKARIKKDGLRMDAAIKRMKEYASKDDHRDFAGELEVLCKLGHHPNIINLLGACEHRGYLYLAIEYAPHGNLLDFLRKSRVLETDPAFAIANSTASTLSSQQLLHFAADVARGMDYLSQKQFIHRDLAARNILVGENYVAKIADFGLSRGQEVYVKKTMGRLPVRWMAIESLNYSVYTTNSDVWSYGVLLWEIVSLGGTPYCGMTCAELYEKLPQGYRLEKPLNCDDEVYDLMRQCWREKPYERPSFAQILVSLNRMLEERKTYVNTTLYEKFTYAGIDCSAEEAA

TIE-2 [6] = molecular target: T1, TIE-2; assay: Vanadate-induced TIE-2 receptor phosphorylation in CHO cells; assay type: cell-based; set-up: host or cells: Chinese hamster ovary (CHO) cells; conditions: Chinese hamster ovary (CHO) cells, read-out: IC50, vanadate-induced inhibition of TIE-2 receptor phosphorylation
SARS-CoV-2 [7] = assay: Primary human mucociliary airway (ALI) SARS-CoV-2 infection model; assay type: cell-based; conditions: tested at 10 µM
[8] = tested on: influenza virus (INFV) H1N1 A/California/07/09; assay type: cell-based; conditions: read-out: IC50 against influenza virus; Vero cells, MOI 0.01, 35 °C, TPCK trypsin
[9] = tested on: Herpes simplex virus (HSV) 2 MS; assay type: cell-based, herpes simplex virus 2
[10] = tested on: chikungunya virus (CHKV) 181/25; assay type: cell-based
SARS-CoV-2 [11] = assay type: in vivo, mice (B6.Cg-Tg(K18-ACE2)2Prlmn/J); conditions: K18-ACE2 mice, oral b.i.d., vs placebo
KDR = KDR (Homo sapiens, UniProt P35968); assay: Kinase inhibition profile: KDR
KDR, sequence (P35968 20-1356): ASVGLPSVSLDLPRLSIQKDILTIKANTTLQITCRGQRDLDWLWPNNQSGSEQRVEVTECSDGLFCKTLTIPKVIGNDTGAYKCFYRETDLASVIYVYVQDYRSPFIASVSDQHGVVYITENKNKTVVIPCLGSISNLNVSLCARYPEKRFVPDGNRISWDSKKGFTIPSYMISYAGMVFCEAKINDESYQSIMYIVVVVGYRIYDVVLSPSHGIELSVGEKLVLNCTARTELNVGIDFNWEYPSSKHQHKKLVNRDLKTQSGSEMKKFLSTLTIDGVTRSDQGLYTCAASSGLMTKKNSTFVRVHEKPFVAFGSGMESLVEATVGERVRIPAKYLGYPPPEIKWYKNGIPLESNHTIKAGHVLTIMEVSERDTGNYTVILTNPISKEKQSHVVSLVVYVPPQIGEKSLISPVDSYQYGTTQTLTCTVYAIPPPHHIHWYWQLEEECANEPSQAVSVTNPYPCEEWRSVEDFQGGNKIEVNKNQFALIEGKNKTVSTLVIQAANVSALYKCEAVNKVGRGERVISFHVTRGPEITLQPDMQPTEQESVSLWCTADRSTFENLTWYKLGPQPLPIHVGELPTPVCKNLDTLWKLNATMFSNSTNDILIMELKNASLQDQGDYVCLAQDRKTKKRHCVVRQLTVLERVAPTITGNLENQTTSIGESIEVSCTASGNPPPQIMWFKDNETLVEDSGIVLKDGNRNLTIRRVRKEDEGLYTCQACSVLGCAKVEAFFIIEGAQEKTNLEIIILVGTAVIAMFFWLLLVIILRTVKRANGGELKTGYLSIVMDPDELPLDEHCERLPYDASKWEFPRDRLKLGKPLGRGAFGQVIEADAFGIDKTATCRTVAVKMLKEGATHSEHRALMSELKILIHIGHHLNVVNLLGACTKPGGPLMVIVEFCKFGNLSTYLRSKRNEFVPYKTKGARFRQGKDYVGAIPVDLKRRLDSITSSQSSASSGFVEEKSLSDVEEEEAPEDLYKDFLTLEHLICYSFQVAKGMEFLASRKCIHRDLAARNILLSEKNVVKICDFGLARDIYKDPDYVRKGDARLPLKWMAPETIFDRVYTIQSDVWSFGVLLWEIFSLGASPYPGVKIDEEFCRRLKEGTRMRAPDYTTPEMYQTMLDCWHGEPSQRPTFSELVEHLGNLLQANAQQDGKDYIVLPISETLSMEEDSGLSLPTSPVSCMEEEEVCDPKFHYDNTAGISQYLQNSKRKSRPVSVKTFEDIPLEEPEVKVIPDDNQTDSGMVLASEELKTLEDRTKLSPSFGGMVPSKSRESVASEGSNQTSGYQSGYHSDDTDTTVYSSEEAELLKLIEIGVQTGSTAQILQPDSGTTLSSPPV

[12] = tested on: Zika virus (ZIKV) FSS13025; assay type: cell-based
MAPK14 = MAPK14 (Homo sapiens, UniProt Q16539); assay: Kinase inhibition profile: MAPK14; assay type: biochemical; conditions: kinase inhibition profile (DSTT, Cerep); preliminary
MAPK14, sequence (Q16539 whole entry): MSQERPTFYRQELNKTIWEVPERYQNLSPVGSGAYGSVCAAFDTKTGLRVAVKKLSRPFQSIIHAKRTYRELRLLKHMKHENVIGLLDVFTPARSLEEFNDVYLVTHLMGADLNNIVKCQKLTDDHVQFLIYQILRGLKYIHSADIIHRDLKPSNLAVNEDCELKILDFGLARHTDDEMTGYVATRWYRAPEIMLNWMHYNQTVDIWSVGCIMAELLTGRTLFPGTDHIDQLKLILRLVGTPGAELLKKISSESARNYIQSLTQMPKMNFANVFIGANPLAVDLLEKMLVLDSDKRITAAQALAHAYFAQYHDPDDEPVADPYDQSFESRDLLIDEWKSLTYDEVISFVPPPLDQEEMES

MAPK11 = MAPK11 (Homo sapiens, UniProt Q15759); assay: Kinase inhibition profile: MAPK11; assay type: biochemical; conditions: kinase inhibition profile (DSTT, Cerep); preliminary
MAPK11, sequence (Q15759 whole entry): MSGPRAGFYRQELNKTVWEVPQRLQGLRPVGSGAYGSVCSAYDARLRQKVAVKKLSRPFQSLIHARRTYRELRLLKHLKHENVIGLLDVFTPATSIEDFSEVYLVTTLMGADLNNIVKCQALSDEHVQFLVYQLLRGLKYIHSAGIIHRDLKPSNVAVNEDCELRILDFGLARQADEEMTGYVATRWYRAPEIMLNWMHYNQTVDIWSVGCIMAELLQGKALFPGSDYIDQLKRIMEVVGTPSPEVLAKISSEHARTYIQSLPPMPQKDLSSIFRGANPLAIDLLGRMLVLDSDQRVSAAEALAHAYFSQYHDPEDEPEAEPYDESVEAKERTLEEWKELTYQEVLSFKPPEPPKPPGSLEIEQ

adenovirus 5 (HAdV5) = assay: microbe, parasite or virus in culture; assay type: cell-based; conditions: read-out: IC50 against HAdV type 5
human adenovirus (HAdV) = assay: microbe, parasite or virus in culture; assay type: cell-based, human adenovirus serotype 11 (RCAd11pGFP)
[13] = tested on: Rift Valley fever virus (RVFV); assay type: cell-based; conditions: A549 cells, primary screening, 100 to 0.4 µM, 16 h post infection
[14] = tested on: human cytomegalovirus (HCMV) Merlin strain; assay: HCMV infectivity assay in human foreskin fibroblasts; assay type: cell-based; conditions: 5 days, column of table headed IC50 [µM]
[15] = 60 mg/kg (Figure 7), 100 mg/kg (methods)

SMILES | activity against HSV-1 [2] | IC50 ([3]; Dengue virus, Vero) [nM] | IC50 [3] [nM] | IC50 (TIE-2 [6]) [nM] | IC50 [8] [nM] | activity against HSV-2 [9] | activity against ZIKV [12] | IC50 (adenovirus 5 (HAdV5); Human mastadenovirus C, Vero) [nM] | IC50 (adenovirus 5 (HAdV5)) [nM] | antiviral activity against HAdV (in words) (human adenovirus (HAdV)) | antiviral activity against RVFV (in words) [13] | other results
CNC(=O)c1cc(Oc2ccc(NC(=O)Nc3cc(C)c(Cl)cc3-n3cccc3)cc2)ccn1 [Compound 4] | Not Active | 10 | 12 | 126 | 10700 | dose-dependent activity; also recorded: Active | dose-dependent activity; also recorded: Active | 600 | 630 | – | – | IC50 (SARS-CoV-2 [1]; Severe acute respiratory syndrome coronavirus 2, HeLa-ACE2 cells, 24 h, immunofluorescence of infected cells): 500 nM; IC50 (CDK8): 31 nM; IC50 (SARS-CoV-2 [4]; Severe acute respiratory syndrome coronavirus 2, read-out: IC50 against SARS-CoV-2): 7700 nM; inhibition of TIE-2 (in words) (TIE-2 [5]): strong inhibition; inhibition of SARS-CoV-2 replication in primary human mucociliary airway model (SARS-CoV-2 [7]): showed activity; activity against CHKV ([10]; Vero cells, MOI 0.01, column of table headed IC50 [µM]): Not Active; animal survival after lethal SARS-CoV-2 challenge (SARS-CoV-2 [11]; [15]): protective effect on animal survival; also recorded: increased survival; body weight loss after infection (SARS-CoV-2 [11]; [15]): reduced body weight loss; viral titers in lungs (SARS-CoV-2 [11]; days 1, 3 and 6 after infection, qRT-PCR): statistically significant reduction in viral titers; also recorded: reduced viral load in lungs; IC50 (KDR): 7.9 nM; IC50 (MAPK14): 87 nM; IC50 (MAPK11): 430 nM
CNC(=O)c1cc(Oc2ccc(NC(=O)Nc3cc(C(F)(F)F)ccc3-n3ccnc3)cc2)ccn1 [Compound 2] | – | – | – | – | – | – | – | – | – | did not have activity | dose–response antiviral activity | IC50 (TIE-2 [6]; unit given as nm): 3 nM
CNC(=O)c1cc(Oc2ccc(NC(=O)Nc3cc(C(F)(F)F)ccc3-n3cncn3)cc2)ccn1 [Compound 1] | Not Active | 8430 | 8430 | 27 | 39500 | Active | Not Active | 1160 | 1160 | – | antiviral activity was seen at 25 µM | SI (selectivity index) (SARS-CoV-2 [1]; HeLa-ACE2 cells): 5; IC50 (SARS-CoV-2 [1]; Severe acute respiratory syndrome coronavirus 2, HeLa-ACE2, 24 h): 3200 nM; IC50 against SARS-CoV-2 (SARS-CoV-2 [4]): did not exhibit antiviral properties; EC50 (human adenovirus (HAdV); Human adenovirus sp., A549, 24 h, read-out: EC50 against HAdV): 4500 nM; activity against HCMV [14]: Active; activity against CHKV [10]: Not Active
O=C(Nc1ccc(Oc2ccncc2)cc1)Nc1cc(C(F)(F)F)ccc1-n1cncn1 [Compound 3] | – | – | – | 36 | – | – | – | – | – | most potent compound | most potent compound | host cell toxicity by visual observation (A549 cells): displayed host cell toxicity at the highest concentrations
